Inhibition and Ki data for two compounds are collected here from article PMC10629583, “Specific inhibition of an anticancer target, polo-like kinase 1, by allosterically dismantling its mechanism of substrate recognition” (Proceedings of the National Academy of Sciences of the …, 2023).

Where only a bound is given, the exact number is not on record here.

The term Ki denotes a measure of affinity in units of concentration, obtained from inhibition or displacement.

Holding throughout (assay): PDSP off-target binding screen
Common to all, as to conditions: for inhibition at 10 µM: read-out: Primary screen AVE(%inhib)±SD; for Ki: read-out: Secondary screen Ki

Assay [1] concerns the target T1, 5-HT1B (Homo sapiens, UniProt P28222).
T1 construct: NIMH Psychoactive Drug Screening Program (UNC)
From the text:
(§1) PDSP no. Compound Interactions (Ki, µM)
(§2) 60477 Allopole-A None observed.
(§3) trigger a secondary screen at that receptor.

The target in assay [2] is T2, 5-HT1D (Homo sapiens, UniProt P28221).
T2 construct: NIMH Psychoactive Drug Screening Program (UNC)
Source text: as §1, §2, §3

The target of assay [3] is T3, 5-HT6 (Homo sapiens, UniProt P50406).
T3 construct: NIMH Psychoactive Drug Screening Program (UNC)
Source text: as §1, §2, §3

In assay [4] the target is 5-HT7A (Homo sapiens, UniProt P34969).
Source text: as §1, §2, §3

Assay [5] has as its target T4, Alpha1A (Homo sapiens, UniProt P35348).
T4 sequence (P35348 1-466): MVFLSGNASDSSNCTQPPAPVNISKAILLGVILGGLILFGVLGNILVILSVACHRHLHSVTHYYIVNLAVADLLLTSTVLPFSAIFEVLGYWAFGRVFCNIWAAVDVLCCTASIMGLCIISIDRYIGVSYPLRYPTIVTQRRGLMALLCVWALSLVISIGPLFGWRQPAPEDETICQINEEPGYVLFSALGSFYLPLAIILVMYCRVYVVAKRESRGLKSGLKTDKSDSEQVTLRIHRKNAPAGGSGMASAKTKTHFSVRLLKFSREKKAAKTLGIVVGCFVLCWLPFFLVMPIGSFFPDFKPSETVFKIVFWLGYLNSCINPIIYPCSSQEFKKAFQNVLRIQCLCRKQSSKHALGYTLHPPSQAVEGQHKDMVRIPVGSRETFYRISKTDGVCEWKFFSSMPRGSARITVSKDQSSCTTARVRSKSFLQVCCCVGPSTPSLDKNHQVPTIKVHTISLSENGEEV
Source text: as §1, §2, §3

Assay [6] addresses T5, Alpha1B (Homo sapiens, UniProt P35368).
T5 sequence (P35368 1-520): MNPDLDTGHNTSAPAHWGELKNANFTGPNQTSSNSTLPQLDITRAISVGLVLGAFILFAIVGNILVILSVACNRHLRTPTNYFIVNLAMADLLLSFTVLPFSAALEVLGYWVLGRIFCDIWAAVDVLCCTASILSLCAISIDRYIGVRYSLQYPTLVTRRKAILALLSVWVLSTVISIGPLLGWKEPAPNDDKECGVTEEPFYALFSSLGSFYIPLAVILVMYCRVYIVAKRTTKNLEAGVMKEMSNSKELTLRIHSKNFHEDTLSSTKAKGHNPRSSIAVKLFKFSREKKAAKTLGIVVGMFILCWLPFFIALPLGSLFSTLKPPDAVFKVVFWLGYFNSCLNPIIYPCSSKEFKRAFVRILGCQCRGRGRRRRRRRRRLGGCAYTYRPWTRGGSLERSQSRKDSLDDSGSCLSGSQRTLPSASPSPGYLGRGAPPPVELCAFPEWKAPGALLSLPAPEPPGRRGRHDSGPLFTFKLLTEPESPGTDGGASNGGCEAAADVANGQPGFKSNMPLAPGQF
Source text: as §1, §2, §3

The target of assay [7] is T6, Alpha2A (Homo sapiens, UniProt P08913).
T6 sequence (P08913 1-465): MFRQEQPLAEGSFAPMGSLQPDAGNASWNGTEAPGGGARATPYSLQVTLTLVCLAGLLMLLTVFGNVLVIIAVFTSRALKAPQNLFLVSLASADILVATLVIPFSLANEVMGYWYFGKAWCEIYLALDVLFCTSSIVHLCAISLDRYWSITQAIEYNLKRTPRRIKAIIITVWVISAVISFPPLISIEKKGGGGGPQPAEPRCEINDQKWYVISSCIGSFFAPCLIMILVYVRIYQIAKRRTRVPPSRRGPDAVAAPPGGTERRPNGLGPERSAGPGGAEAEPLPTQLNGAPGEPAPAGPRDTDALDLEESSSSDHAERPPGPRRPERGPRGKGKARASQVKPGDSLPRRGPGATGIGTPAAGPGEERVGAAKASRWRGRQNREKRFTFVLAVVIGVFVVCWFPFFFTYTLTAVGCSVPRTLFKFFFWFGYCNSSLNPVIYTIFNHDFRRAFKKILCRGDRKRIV
Source text: as §1, §2, §3

In assay [8] the target is T7, Alpha2B (Homo sapiens, UniProt P18089).
T7 sequence (P18089 1-450): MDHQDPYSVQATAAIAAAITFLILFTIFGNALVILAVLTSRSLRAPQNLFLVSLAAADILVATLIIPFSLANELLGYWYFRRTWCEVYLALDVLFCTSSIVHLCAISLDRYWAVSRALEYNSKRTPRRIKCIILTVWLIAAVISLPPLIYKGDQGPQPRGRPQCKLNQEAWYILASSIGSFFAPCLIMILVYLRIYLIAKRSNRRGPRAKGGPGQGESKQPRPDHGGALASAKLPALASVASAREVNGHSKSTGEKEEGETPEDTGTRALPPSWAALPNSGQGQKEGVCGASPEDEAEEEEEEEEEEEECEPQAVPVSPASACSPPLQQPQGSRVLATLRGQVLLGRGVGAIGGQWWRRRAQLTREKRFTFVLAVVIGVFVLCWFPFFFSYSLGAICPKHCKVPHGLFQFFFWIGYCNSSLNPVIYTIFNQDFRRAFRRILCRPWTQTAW
Source text: as §1, §2, §3

Assay [9] has as its target H1 (Homo sapiens, UniProt P35367).
Source text: as §1, §2, §3

In assay [10] the target is H2 (Homo sapiens, UniProt P25021).
Source text: as §1, §2, §3

In assay [11] the target is Sigma 2 (Homo sapiens, UniProt Q5BJF2).
Source text: as §1, §2, §3

Chain of 5-HT7A (P34969 1-445 isoform P34969-2): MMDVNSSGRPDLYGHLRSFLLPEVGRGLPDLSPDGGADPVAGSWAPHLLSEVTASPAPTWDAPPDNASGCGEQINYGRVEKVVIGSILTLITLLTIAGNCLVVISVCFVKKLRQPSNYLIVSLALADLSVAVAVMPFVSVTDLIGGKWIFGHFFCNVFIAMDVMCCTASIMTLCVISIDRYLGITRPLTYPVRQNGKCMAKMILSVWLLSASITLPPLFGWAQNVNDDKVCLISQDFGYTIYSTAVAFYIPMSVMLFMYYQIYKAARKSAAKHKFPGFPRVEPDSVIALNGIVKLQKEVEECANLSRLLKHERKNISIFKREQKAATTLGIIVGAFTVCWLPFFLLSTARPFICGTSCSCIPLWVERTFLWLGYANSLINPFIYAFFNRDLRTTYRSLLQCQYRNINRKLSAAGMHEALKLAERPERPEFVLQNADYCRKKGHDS
Chain of Sigma 2 (Q5BJF2 whole entry): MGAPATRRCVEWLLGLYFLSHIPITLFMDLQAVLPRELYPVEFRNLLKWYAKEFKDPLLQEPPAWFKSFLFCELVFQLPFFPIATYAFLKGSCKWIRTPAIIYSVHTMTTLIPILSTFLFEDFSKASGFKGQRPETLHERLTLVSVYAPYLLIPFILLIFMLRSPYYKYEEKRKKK
Chain of H2 (P25021 whole entry): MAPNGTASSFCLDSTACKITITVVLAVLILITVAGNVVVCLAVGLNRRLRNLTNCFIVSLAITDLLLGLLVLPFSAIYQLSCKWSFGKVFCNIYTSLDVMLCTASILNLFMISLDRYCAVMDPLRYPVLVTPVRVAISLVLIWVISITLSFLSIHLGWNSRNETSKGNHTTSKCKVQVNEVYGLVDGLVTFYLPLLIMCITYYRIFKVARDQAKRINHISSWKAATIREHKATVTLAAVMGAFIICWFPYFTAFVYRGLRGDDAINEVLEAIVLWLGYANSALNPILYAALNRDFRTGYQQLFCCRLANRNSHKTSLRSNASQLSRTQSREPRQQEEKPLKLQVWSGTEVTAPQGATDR
T1 sequence (P28222 whole entry): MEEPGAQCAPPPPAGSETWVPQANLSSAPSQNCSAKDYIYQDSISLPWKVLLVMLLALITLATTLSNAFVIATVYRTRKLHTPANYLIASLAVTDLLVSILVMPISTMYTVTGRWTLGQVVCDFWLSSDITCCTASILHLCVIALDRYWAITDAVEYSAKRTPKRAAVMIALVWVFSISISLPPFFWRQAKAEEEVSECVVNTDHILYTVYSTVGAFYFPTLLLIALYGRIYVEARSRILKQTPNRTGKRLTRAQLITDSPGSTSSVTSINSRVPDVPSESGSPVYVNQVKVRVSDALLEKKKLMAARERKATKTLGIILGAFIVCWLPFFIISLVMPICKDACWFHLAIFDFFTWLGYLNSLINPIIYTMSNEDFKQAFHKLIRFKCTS
T3 sequence (P50406 whole entry): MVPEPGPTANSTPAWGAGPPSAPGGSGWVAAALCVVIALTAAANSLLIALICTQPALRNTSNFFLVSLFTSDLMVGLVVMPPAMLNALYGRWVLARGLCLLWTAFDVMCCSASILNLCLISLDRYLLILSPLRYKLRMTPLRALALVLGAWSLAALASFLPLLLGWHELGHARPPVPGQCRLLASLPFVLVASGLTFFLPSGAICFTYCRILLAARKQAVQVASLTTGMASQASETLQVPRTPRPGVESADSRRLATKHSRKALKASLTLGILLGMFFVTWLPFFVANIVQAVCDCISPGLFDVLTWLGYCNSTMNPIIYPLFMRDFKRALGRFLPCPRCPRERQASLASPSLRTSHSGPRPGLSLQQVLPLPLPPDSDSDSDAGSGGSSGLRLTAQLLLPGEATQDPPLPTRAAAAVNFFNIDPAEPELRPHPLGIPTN
Chain of H1 (P35367 whole entry): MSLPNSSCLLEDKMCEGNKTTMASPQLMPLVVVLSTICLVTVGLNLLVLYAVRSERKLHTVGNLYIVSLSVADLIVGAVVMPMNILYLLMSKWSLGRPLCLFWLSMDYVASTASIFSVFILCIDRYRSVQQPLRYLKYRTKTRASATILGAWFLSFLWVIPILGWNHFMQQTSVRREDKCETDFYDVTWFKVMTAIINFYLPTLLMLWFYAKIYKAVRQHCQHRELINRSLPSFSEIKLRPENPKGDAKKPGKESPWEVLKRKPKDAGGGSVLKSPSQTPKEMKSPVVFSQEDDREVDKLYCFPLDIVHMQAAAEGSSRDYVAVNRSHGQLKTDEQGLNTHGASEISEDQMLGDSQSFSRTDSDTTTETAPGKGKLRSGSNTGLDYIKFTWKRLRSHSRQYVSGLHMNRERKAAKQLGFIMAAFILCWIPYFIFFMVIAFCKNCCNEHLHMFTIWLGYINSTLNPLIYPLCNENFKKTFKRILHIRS
T2 sequence (P28221 whole entry): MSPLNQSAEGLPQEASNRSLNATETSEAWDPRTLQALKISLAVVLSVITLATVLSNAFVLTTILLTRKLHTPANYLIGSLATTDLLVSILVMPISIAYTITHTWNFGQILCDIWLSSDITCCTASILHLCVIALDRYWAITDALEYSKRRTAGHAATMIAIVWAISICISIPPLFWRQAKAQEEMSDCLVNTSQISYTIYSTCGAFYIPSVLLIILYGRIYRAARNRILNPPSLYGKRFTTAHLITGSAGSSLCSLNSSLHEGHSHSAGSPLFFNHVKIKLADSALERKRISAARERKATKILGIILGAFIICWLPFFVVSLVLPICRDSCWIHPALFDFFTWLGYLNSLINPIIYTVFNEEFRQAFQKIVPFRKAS

As to `O=c1c2sc(Cl)cc2n2c(=S)[nH]nc2n1CC1CC1` [Allopole-A], the inhibition at 10 µM is 17.7 ± 42.2% in [1]; 22.5 ± 25.6% in assay [2]; -5 ± 11.7% in assay [3]; -88.1 ± 20.8% in assay [4]; -9.4 ± 18% in assay [5]; -7.7 ± 9.7% in assay [6]. For the same compound, the inhibition at 10 µM was -6.3 ± 7.9% in [7]; -6.4 ± 7.1% in assay [8]; 11.5 ± 2.8% in [9]; -27.4 ± 17.1% in assay [10]; 40.6 ± 9.5% in [11]. In addition, the inhibitory constant (Ki) in assay [1], in [2], in assay [3], in [4], in assay [5] and in [6] was greater than 10 µM each time. Also, the Ki in assay [7], in assay [8], in assay [9], in assay [10] and in assay [11] was greater than 10 µM in each case.

Take `Cn1cnc([N+](=O)[O-])c1Sc1nnc2n(CC3CC3)c(=O)c3sc(Cl)cc3n12` [Allopole]: the inhibition at 10 µM was 60.8 ± 40.9% in [1]; 32.8 ± 27.1% in assay [2]; 21.9 ± 15.6% in assay [3]; 14.9 ± 9.9% in [4]; 40.6 ± 10.5% in [5]; -1.6 ± 9.5% in assay [6]. Also, the inhibition at 10 µM in assay [7] is 9.4 ± 4.6%; in assay [8], 8.3 ± 16.4%; in [9] it was 35.8 ± 11.9%; in [10] it was -16.4 ± 21.5%; in assay [11], 40.7 ± 5.8%. The Ki in [1], in [2], in [3], in assay [4], in [5] and in assay [6] was greater than 10 µM in each case. In addition, the Ki in assay [7], in assay [8], in [9], in assay [10] and in [11] was greater than 10 µM throughout.
